Measured values reported in patent publication US6818619B2, “Chimeric natriuretic peptides” (Mayo Foundation for Medical Education and Research, priority 1999, dated 2004).
“And” between values parts separate entries of the source, which are not always exact repeats. Equal entries are not always repeated.

Test system: normal rats
Test: Cardiorenal actions of bolus ANP, CNP, VNP in anesthetized normal rats
Type: in vivo, rat
[1] = normal rats, Recovery (after 30 minute washout)

CC[C@H](C)[C@@H]1NC(=O)[C@H](CCCNC(=N)N)NC(=O)[C@H](CC(=O)O)NC(=O)[C@H](CCSC)NC(=O)[C@H](CCCNC(=N)N)NC(=O)CNC(=O)CNC(=O)[C@H](Cc2ccccc2)NC(=O)[C@@H](NC(=O)[C@H](CO)NC(=O)[C@H](CO)NC(=O)[C@H](CCCNC(=N)N)NC(=O)[C@H](CCCNC(=N)N)NC(=O)[C@H](CC(C)C)NC(=O)[C@@H](N)CO)CSSC[C@@H](C(=O)N[C@@H](CC(N)=O)C(=O)N[C@@H](CO)C(=O)N[C@@H](Cc2ccccc2)C(=O)N[C@@H](CCCNC(=N)N)C(=O)N[C@@H](Cc2ccc(O)cc2)C(=O)O)NC(=O)CNC(=O)[C@H](CC(C)C)NC(=O)CNC(=O)[C@H](CO)NC(=O)[C@H](CCC(N)=O)NC(=O)[C@H](C)NC(=O)CNC1=O [ANP, Atrial natriuretic peptide]
HR heart rate (normal rats, 5 μg/kg bolus): 353 ± 14 beats/minute | MAP mean arterial pressure (normal rats, 5 μg/kg bolus): 97 ± 12 mmHg | RAP right atrial pressure (normal rats, 5 μg/kg bolus): −2.3 ± 0.8 mmHg | UKV urine potassium excretion (normal rats, 5 μg/kg bolus): 10.3 ± 3.5 µmol/min | UNaV urine sodium excretion (normal rats, 5 μg/kg bolus): 13.2 ± 3.5 µmol/min | UV urine volume (normal rats, 5 μg/kg bolus): 79 ± 10 µL/min | UcGMPV urine cGMP volume (normal rats, 5 μg/kg bolus): 605 ± 151 pmol/min | HR heart rate (normal rats, 50 μg/kg bolus): 355 ± 19 beats/minute | MAP mean arterial pressure (normal rats, 50 μg/kg bolus): 69 ± 7*+ mmHg | RAP right atrial pressure (normal rats, 50 μg/kg bolus): −3.8 ± 0.8*+ mmHg | UKV urine potassium excretion (normal rats, 50 μg/kg bolus): 24.4 ± 8.7 µmol/min | UNaV urine sodium excretion (normal rats, 50 μg/kg bolus): 68.2 ± 15.7*+ μmol/minute | UV urine volume (normal rats, 50 μg/kg bolus): 341 ± 41*+ μl/minute | UcGMPV urine cGMP volume (normal rats, 50 μg/kg bolus): 2580 ± 505*+ pmol/minute | HR heart rate [1]: 368 ± 23 beats/minute | MAP mean arterial pressure [1]: 92 ± 11*¶ mmHg | PcGMP plasma cGMP [1]: 3.2 − 63¶ pmol/ml | RAP right atrial pressure [1]: −0.8 ± 0.9¶ mmHg | UKV urine potassium excretion [1]: 2.4 ± 0.1 µmol/min | UNaV urine sodium excretion [1]: 8.9 ± 3.5¶ μmol/minute | UV urine volume [1]: 48 ± 14¶ μl/minute | UcGMPV urine cGMP volume [1]: 105 ± 63¶ pmol/minute

C-type natriuretic peptide (GLSKGCFGLKLDRIGSMSGLGC) [CNP]
HR heart rate (rat, in vivo): 363 ± 19 beats/minute and 365 ± 19 beats/minute and 363 ± 16 beats/minute | MAP mean arterial pressure (rat, in vivo): 100 ± 12 mmHg and 87 ± 9*+ mmHg and 104 ± 11*¶ mmHg

vasonatrin peptide [VNP]
HR heart rate (rat, in vivo): 393 ± 20 beats/minute and 408 ± 25 beats/minute and 390 ± 20 beats/minute | MAP mean arterial pressure (rat, in vivo): 93 ± 15 mmHg and 79 ± 15*+ mmHg and 93 ± 15*¶ mmHg
